Measured values published in US10537550B2, “Methods of treating underlying inflammation from COPD or asthma” (MEDA PHARMA GMBH & CO. KG, priority 2004, dated 2020).
Where two headings read alike, the source gives them in different places.

How the values were obtained:
[1] = tested on: TNFα release from human peripheral blood mononuclear cells (PBMCs); assay: LPS-induced TNFα release from human PBMCs/monocytes (sandwich ELISA); assay type: cell-based; settings: LPS 1 μg/ml; for IC50: Homo sapiens, PBMC, read-out: IC50 of inhibition of TNFα release
Description: The influence of R,R-glycopyrrolate in combination with glucocorticoids on TNFα release was investigated by using human peripheral blood mononuclear cells (PBMCs). The study was approved by our institutional Ethics Committee according to the International Declarations of Helsinki and Tokyo. PBMCs were isolated from heparinized blood samples of healthy donors by density gradient centrifugation. An equal volume of Hanks buffer (Life Technologies, Heidelberg, Germany) is added to heparinized whole blood samples. 15 ml Histopaque-1077 (Sigma, Deisenhofen, Germany) are overlayed with a maximum of 40 ml of blood/Hanks mixture were centrifuged for 30 min at room temperature (2000 rpm). A visible band containing PBMCs is transferred to a fresh tube and washed twice with Hanks-buffer. Finally cells are seeded in RPMI 1640 Medium (Life Technologies, Heidelberg, Germany) with Glutamax I (Gibco BRL, Eggenstein) and 10% FCS (Boehringer Mannheim, Penzberg, Germany). After isolated, PBMCs were cultured in RPMI 1640 medium supplemented with 10% fetal calf serum (FCS) at 37° C. 5% CO2 overnight. Monocytes were isolated from other cells by adherence method, non-adherent cells were removed by changing the medium. Cells are re-suspended at 10^6 cells/ml and incubated in 500 μl volumes in 24-well tissue culture plates (Falcon Becton Dickinson Labware) at 37° C., 5% CO2. After pre-incubation with test substances (0.5 μl/500 μl medium) for 30 min, cells were stimulated with lipopolysaccharide (LPS) (1 μg/ml). At indicated times cells were sedimented by centrifugation, the supernatants were harvested and kept frozen at −80° C. until protein determination; the cells were lysed by RLT lysis Buffer (Qiagen, Hilden, Germany) and frozen at −80° C. until analysis. […] Plates are read at 450 nm (reference 570 nm) in a microplate reader (Dynatech). The results are expressed as a percentage of the control level of cytokines production by cells stimulated in the absence of the compound.

[2] = in vivo; cited from earlier work
[3] = tested on: pulmonary M1 and M3 muscarinic receptor subtypes; settings: following inhalation of single doses; cited from earlier work

C[N+]1(C)CC[C@@H](OC(=O)[C@](O)(c2ccccc2)C2CCCC2)C1.[Br-] [R,R-glycopyrrolate]
influence on LPS-induced TNFα release ([1]; alone, up to 10 μmol/l, human monocytes): did not influence

C[C@@H]1C[C@H]2[C@@H]3C[C@H](F)C4=CC(=O)C=C[C@]4(C)[C@@]3(F)[C@@H](O)C[C@]2(C)[C@@]1(O)C(=O)SCF [fluticasone]
oral bioavailability [2]: < 1%

C[N+]1(C)[C@@H]2C[C@@H](OC(=O)C(O)(c3cccs3)c3cccs3)C[C@H]1[C@@H]1O[C@@H]12 [Tiotropium]
duration of bronchodilation [3]: 24 h

CCCC1O[C@@H]2C[C@H]3[C@@H]4CCC5=CC(=O)C=C[C@]5(C)[C@H]4[C@@H](O)C[C@]3(C)[C@]2(C(=O)CO)O1 (some centres unmarked) [budesonide]
IC50 ([1]; budesonide alone, human monocytes): 0.55 ± 0.13 nM | IC50 ([1]; simultaneous addition of 10 μmol/l R,R-glycopyrrolate, p=0.0251): 0.13 ± 0.03 nM
